Publication PMC8434491, “Targeting the Integrated Stress Response Kinase GCN2 to Modulate Retroviral Integration” (Molecules, 2021)
Where two headings read alike, the source gives them in different places.

How the values were obtained:
Format in all cases: biochemical
[1] = biological target: T1, GCN2 (Homo sapiens, UniProt Q9P2K8); assay: In vitro phosphorylation assay: GCN2 activation (auto-phosphorylation); settings: with IN
T1 construct: expressed as a truncated version (192-1024) in fusion after a glutathione S-transferase tag; purchased SignalChem E12-11G
T1 sequence (Q9P2K8 192-1024): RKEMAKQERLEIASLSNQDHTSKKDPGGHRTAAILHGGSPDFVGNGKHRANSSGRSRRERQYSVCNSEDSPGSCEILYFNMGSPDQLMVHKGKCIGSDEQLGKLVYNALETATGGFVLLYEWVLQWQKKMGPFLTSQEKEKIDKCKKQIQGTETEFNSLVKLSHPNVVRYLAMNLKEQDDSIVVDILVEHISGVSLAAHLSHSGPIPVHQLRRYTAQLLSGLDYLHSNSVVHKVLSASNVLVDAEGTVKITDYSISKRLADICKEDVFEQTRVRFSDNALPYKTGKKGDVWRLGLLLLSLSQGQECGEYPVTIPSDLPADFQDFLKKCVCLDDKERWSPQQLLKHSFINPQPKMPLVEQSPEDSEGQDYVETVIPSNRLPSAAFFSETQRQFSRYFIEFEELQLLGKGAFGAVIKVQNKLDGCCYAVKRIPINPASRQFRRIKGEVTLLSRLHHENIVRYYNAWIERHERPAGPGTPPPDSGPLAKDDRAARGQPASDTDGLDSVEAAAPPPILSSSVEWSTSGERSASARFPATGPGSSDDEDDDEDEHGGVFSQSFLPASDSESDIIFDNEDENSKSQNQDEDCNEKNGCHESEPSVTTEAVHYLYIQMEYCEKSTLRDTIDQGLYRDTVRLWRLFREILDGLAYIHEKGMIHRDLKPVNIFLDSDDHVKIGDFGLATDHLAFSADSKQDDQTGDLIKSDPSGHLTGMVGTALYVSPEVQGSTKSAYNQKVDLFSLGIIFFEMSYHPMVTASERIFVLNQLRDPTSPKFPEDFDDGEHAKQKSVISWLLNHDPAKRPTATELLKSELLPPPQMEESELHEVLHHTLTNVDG
Excerpt: Enzymes. GCN2 was purchased from SignalChem (EIF2AK4, cat. #E12-11G). This human recombinant protein was expressed as a truncated version (192-1024) in fusion after a glutathione S-transferase tag (approximate molecular weight of 132 kDa). Recombinant full-length IN was expressed in E. coli BL21 pLys (IPTG induction) and purified on a nickel chelating column, as described. Integrity and purity were checked by direct Coomassie coloration of elution fractions on SDS-PAGE before dialysis to remove imidazole. Protein concentration was determined using a NanoDrop 2000 with the following parameters: molecular weight: 34 kDa, extinction coefficient ϵ = 50,460 mol^−1cm^−1L.
In vitro phosphorylation assay. Phosphorylation of IN (700 nM) was carried out using 25 nM of GCN2 in a reaction buffer containing 10 mM Tris-HCl pH 7.5, 50 mM NaCl, 15 mM MgCl2, 7.5 mM MnCl2, 10 mM DTT, 0.005% Nonidet P-40, 100 µM ATP, 50 µCi/µL of [γ-^32P]-ATP (3000 Ci/mmole, Perkin Elmer). Reactions (20 µL) were stopped after a 60 min incubation at 30 °C by adding 10 µL of loading buffer [80 mM Tris-HCl pH 6.8, 100 mM DTT, 10% glycerol, 1% sodium dodecyl sulfate (SDS) and 0.05% bromophenol blue]. Samples were then loaded onto a 10% denaturating SDS-PAGE. After protein separation (120 V for 120 min) the gel was stained using Coomassie Brilliant Blue R-250. Autoradiography was performed using an imaging plate (Fujifilm, Tokyo, Japan) and images were obtained with a FLA-5000 Imaging System (Fujifilm).

[2] = biological target: T2, HIV-1 IN (Human immunodeficiency virus type 1 group M subtype B, UniProt P04585); assay: Integrase reaction, strand transfer (ST), gel-based; settings: serial dilutions from 100 µM to 45.7 nM
T2 construct: Recombinant full-length IN was expressed in E. coli BL21 pLys; 6xHis; made in house; host or cells: E. coli BL21 pLys
Procedure: Oligonucleotides. Oligonucleotides were purchased from Integrated DNA Technologies, Inc. (Leuven, Belgium), purified on polyacrylamide gel through electro-elution and dissolve in water. 19T ([…]) and 21B ([…]) correspond to the cleaved and non-cleaved strands specifically recognized by HIV-1 IN. Radiolabeling of 19T at the 5′-end was performed with [γ-^32P] ATP (Perkin-Elmer, Villebon-sur-Yvette, France) using T4 polynucleotide kinase (Promega, Charbonnières-les-Bains, France), according to the manufacturers’ instructions. Unincorporated isotopes were removed using illustra microspin G-25 Columns (Cytiva life sciences, Amersham, Little Chalfont, United Kingdom). DNA duplexes were annealed using an equimolar ratio of the complementary strand 21B, heating to 95 °C, and slow cooling to room temperature.
Integrase reactions. IN reactions were carried out by adding molecules or an equivalent volume of 100% DMSO (dimethyl sulfoxide, used as the drug solvent) to a mixture of 20 nM duplex DNA (19T/21B) and 400 nM IN in 50 mM MOPS pH 7.2, 7.5 mM MgCl2, and 14 mM 2-mercaptoethanol. Reactions were performed at 37 °C for 1 h and quenched by addition of an equal volume (10 µL) of loading buffer [formamide containing 1% SDS (sodium dodecyl sulfate), 0.25% bromophenol blue, and xylene cyanol]. Reaction products were separated in 16% polyacrylamide denaturing sequencing gels. Dried gels were visualized using a FLA-5000 imaging system (Fujifilm). Densitometric analyses were performed using the ImageQuant 5.1 software (GE Healthcare, Chicago, IL, USA) and data analyzed using Prism 6.05 software (GraphPad, San Diego, CA, USA).

[3] = biological target: T1, GCN2; assay: In vitro phosphorylation assay: GCN2 activation (auto-phosphorylation); settings: without IN, read-out: GCN2 auto-phosphorylation signal, % of the DMSO control

O=C1c2c(O)ccc(O)c2C(=O)c2c(NCCNCCO)ccc(NCCNCCO)c21 [NSC279836, Mitoxantrone]
remaining activity at 100 µM ([1]; 100 µM, read-out: GCN2 auto-phosphorylation signal, % of the DMSO control): 171% | effect on GCN2 auto-phosphorylation in dose-response ([1]; serial dilutions from 300 µM to 137 nM): reproducible increase | concentrations giving full inhibition of ST activity ([2]; only IN present): above 11 µM | effect on IN strand transfer activity ([2]; only IN present): active | apparent IC50, ST activity ([2]; in words): low-micromolar range | remaining activity at 100 µM [3]: 145%
